Data on 9 molecules can be found in patent EP1144412B1, “IMMUNOSUPPRESSIVE EFFECTS OF PTERIDINE DERIVATIVES” (4 AZA Bioscience nv, priority 1998, dated 2000).

Experiment [1] relates to Peripheral blood mononuclear cells (PBMC). As to the kind of experiment: Mixed lymphocyte reaction (MLR), [3H]-thymidine incorporation. It counts as cell-based. Conditions: Homo sapiens. The method, boiled down:
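Human PBMC from density-gradient separation, stimulated in triplicate by irradiated (30 Gy) allogeneic PBMC or EBV-transformed B cells (RPMI1788, B7-1/B7-2 high). After 5 days at 37 °C, 1 µCi [3H]-thymidine added for 16 h; incorporation counted, percent inhibition computed against drug-free and medium-background cpm.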
In general terms: Incorporation of labelled thymidine or its analogues reports DNA synthesis.

Experiment [2] concerns Highly purified T cells. The experiment in a line: T cell proliferation induced by anti-CD3 mAb + PMA (BrdU incorporation). It counts as cell-based, Human. The conditions noted are these: Homo sapiens, T-cell.
The test system of experiment [3] is Highly purified T cells. The experiment in a line: T cell proliferation induced by anti-CD28 mAb + PMA (BrdU incorporation). The conditions noted are these: Homo sapiens, T-cell. It counts as cell-based, Human.
Where [4] appears, read: Table II, read-out: IC50 in µM of pteridine derivative MLR.
[5] abbreviates: untitled structure table, no unit printed there, same values in Table II as IC50 in µM, read-out: MLR.
[6] abbreviates: Table II, read-out: IC50 in µM of pteridine derivative ACD3.
Setting [7] is: untitled structure table, no unit printed there, same values in Table II as IC50 in µM, read-out: aCD3.
Setting [8] is: Table II, read-out: IC50 in µM of pteridine derivative aCD28.
The mark [9] stands for this setting: untitled structure table, no unit printed there, same values in Table II as IC50 in µM, read-out: aCD28.
Setting [10] is: untitled structure table, IC50 subranges, read-out: MLR.
Setting [11] is: untitled structure table, IC50 subranges, read-out: aCD3.
Where [12] appears, read: untitled structure table, IC50 subranges, read-out: aCD28.

Molecules are shown by their SMILES. Like-named read-outs stand apart in the source and are kept apart here.

In the case of `CCCN(CCC)c1nc(N)nc2ncc(-c3ccc(OC)cc3)nc12` [Compound 31, 2-amino-4-dipropylamino-6-(4-methoxyphenyl)pteridine], the IC50 came out at 8.5 µM in experiment [1] (setting [4]); 8.5 µM in experiment [1] (setting [5]); 5.7 µM in the experiment on Highly purified T cells [2] (setting [6]); 5.7 µM in the experiment with Highly purified T cells [2] (setting [7]); 2.8 µM in the experiment on Highly purified T cells [3] (setting [8]); 2.8 µM in the experiment on Highly purified T cells [3] (setting [9]).

`CN(C)Cc1cnc2nc(N)nc(N)c2n1` [Compound 20, 2,4-diamino-6-dimethyl aminomethyl pteridine]: the IC50 in experiment [1] (setting [4]) is greater than 200 µM; in experiment [1] (setting [5]), greater than 200 µM; in the experiment on Highly purified T cells [2] (setting [6]), 170 µM; in the experiment on Highly purified T cells [2] (setting [7]), 170 µM; in the experiment with Highly purified T cells [3] (setting [8]), 100 µM; in the experiment with Highly purified T cells [3] (setting [9]) it was 100 µM.

Regarding `COc1ccc(-c2cnc3nc(N)nc(N(Cc4ccccc4)Cc4ccccc4)c3n2)cc1OC` [Compound 28, 2-amino-4-dibenzylamino-6-(3,4-dimethoxyphenyl) pteridine], the IC50 came out at 3.5 µM in experiment [1] (setting [4]); 3.5 µM in experiment [1] (setting [5]); 4.3 µM in the experiment with Highly purified T cells [2] (setting [6]); 4.3 µM in the experiment on Highly purified T cells [2] (setting [7]); 3.2 µM with Highly purified T cells [3] (setting [8]); 3.2 µM in the experiment on Highly purified T cells [3] (setting [9]).

Take `COc1ccc(-c2cnc3nc(N)nc(N4CCNCC4)c3n2)cc1` [Compound 48, 2-amino-4-piperazino-6-(4-methoxyphenyl)pteridine]: the IC50 in experiment [1] (setting [4]) worked out at 10.5 µM; in experiment [1] (setting [5]), 10.5 µM; in the experiment on Highly purified T cells [2] (setting [6]), 14 µM; in the experiment with Highly purified T cells [2] (setting [7]) it was 14 µM; in the experiment on Highly purified T cells [3] (setting [8]), 4.5 µM; in the experiment with Highly purified T cells [3] (setting [9]), 4.5 µM.

Consider `COc1ccc(-c2cnc3nc(NC(C)=O)nc(O)c3n2)cc1OC` [Compound 64, 2-acetamido-4-hydroxy-6-(3,4-dimethoxyphenyl)pteridine], for which the IC50 in experiment [1] (setting [10]) is 16 to 150 µM; in the experiment with Highly purified T cells [2] (setting [11]), greater than 151 µM; in the experiment with Highly purified T cells [3] (setting [12]), 16 to 150 µM.

For the molecule `CCN(CC)c1nc(N)nc2ncc(-c3ccccc3)nc12` [Compound 21, 2-amino-4-diethylamino-6-phenylpteridine], the IC50 was found to be 15 µM in experiment [1] (setting [4]); 15 µM in experiment [1] (setting [5]); 80 µM in the experiment on Highly purified T cells [2] (setting [6]); 80 µM in the experiment on Highly purified T cells [2] (setting [7]); 20 µM in the experiment with Highly purified T cells [3] (setting [8]); 20 µM in the experiment on Highly purified T cells [3] (setting [9]).

Regarding `Cc1cnc2nc(N)nc(N(C)C)c2n1` [Compound 60, 2-amino-4-dimethylamino-6-methylpteridine], the IC50 (in experiment [1] (setting [10]); in the experiment with Highly purified T cells [2] (setting [11]); in the experiment on Highly purified T cells [3] (setting [12])) was 16 to 150 µM in each case.

Consider `COc1ccc(-c2cnc3nc(N)nc(N4CCOCC4)c3n2)cc1OC` [Compound 36, 2-amino-4-morpholino-6-(3,4-dimethoxyphenyl)pteridine], for which the IC50 stood at 0.1 µM in experiment [1] (setting [4]); 0.1 µM in experiment [1] (setting [5]); 0.4 µM in the experiment on Highly purified T cells [2] (setting [6]); 0.4 µM in the experiment with Highly purified T cells [2] (setting [7]); 0.3 µM in the experiment on Highly purified T cells [3] (setting [8]); 0.3 µM in the experiment with Highly purified T cells [3] (setting [9]).

Turning to `Nc1nc(N)c2nc(CNCc3ccccc3)cnc2n1` [Compound 19, 2,4-diamino-6-benzylaminomethyl pteridine], the IC50 was determined as 50 µM in experiment [1] (setting [4]); 50 µM in experiment [1] (setting [5]); 123 µM in the experiment with Highly purified T cells [2] (setting [6]); 123 µM in the experiment on Highly purified T cells [2] (setting [7]); 118 µM in the experiment on Highly purified T cells [3] (setting [8]); 118 µM in the experiment on Highly purified T cells [3] (setting [9]).
